# Key:
# [1] = tested on: pancreatic cancer cell lines with a DPC4 deletion (BxPC-3 and CFPAC-1) vs DPC4 wildtype (MIA PaCa-2 and PANC-1); assay: Cell viability by Cell Titer-Glo after 96 hours of drug treatment, pancreatic cancer cell lines; assay type: cell-based, human; settings: BxPC-3 and CFPAC-1 vs MIA PaCa-2 and PANC-1, FIG. 5A, *p<0.05, **p<0.0001
# Method: Cell viability was measured by Cell Titer-Glo after 96 hours of drug treatment.
# [2] = tested on: T cell receptor (TCR) signaling; settings: cited from earlier work
# [3] = tested on: mast cell and basophil degranulation; settings: cited from earlier work
# [4] = tested on: collagen-induced arthritis; settings: mice, orally dosed; cited from earlier work
# [5] = tested on: BCR (B cell receptor) signaling in human B cells; settings: cited from earlier work
# MRL/lpr lupus model = settings: cited from earlier work
compound,measurement,setting,value
C=CC(=O)N1CCC[C@@H](n2nc(-c3ccc(Oc4ccccc4)cc3)c3c(N)ncnc32)C1 [PCI-32765],activity (inhibition of cell growth) in DPC4 deleted vs DPC4 wildtype pancreatic cancer cell lines,[1],more activity
same,effect on TCR signaling,[2],does not affect
same,inhibition of mast cell and basophil degranulation,[3],potent inhibitor
same,course of collagen induced arthritis,[4],reversed
same,level of circulating autoantibodies,[4],reduced
same,effect on BCR signaling,[5],blocks
same,auto-antibody production and development of kidney disease,MRL/lpr lupus model,inhibited
